PMC11220870, “From X-ray crystallographic structure to intrinsic thermodynamics of protein–ligand binding using carbonic anhydrase isozymes as a model system” (IUCrJ, 2024)

Experiments:
[1] = target: T1, CA IX (Homo sapiens, UniProt Q16790); experiment: Intrinsic Gibbs energy of binding (TSA); details: 37°C, Fig. 5
T1 construct: made in house

[2] = tested on: CA IX; design: method as in earlier work; details: depending on the isozyme, ref Dudutienė et al., 2014, Matulienė et al., 2022, Zakšauskas et al.; cited from earlier work
[3] = target: CA I (Homo sapiens, UniProt P00915); details: intrinsic, 37°C
Chain of CA I (P00915 whole entry): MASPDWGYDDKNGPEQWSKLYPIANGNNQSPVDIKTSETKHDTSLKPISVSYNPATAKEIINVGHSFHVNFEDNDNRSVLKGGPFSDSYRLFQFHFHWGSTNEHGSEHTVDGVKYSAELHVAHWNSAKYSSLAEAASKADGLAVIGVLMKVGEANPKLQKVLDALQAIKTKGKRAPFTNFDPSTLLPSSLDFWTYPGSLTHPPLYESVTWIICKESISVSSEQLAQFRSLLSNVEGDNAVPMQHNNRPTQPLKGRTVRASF
Description: Intrinsic thermodynamic parameters of all pairs were determined by TSA and ITC (for calculations we used Gibbs energy obtained by TSA and enthalpy from ITC measurements).

| Compound | intrinsic standard Gibbs energy of binding [1] [kcal/mol] | selectivity toward CA IX over remaining isozymes [2] | ΔHint [3] [kcal/mol] |
| --- | --- | --- | --- |
| COC(=O)c1cc(S(N)(=O)=O)c(SC2CCCCC2)cc1Cl [EA2-3] | -17.9 | a hundred- to a million-fold | – |
| CCCSc1c(F)c(F)c(S(N)(=O)=O)c(F)c1F [VD12-05] | – | – | -17.9 |
